Experimental data from article PMC12627933, “A First-In-Human Study of the SUMOylation Inhibitor Subasumstat in Patients with Advanced/Metastatic Solid Tumors or Relapsed/Refractory Hematologic Malignancies” (Cancer Research Communications, 2025).

Experiment: Safety: treatment-emergent adverse events (NCI CTCAE v5.0; CRS per ASTCT), phase I/II study NCT03648372
Type: in vivo
Description: This study comprised two parts: a phase I dose escalation and a phase II dose expansion (Fig. 1). In the dose-escalation phase, patients were enrolled to receive subasumstat intravenously as a 1-hour (±10 minutes) infusion on days 1, 4, 8, and 11 of a 21-day cycle (biweekly schedule). […] Dose escalation was based on cohort with an adaptive design using Bayesian logistic regression modeling with overdose control. The starting dose of subasumstat was based on Good Laboratory Practice animal toxicity studies and supported by the estimation of a minimum anticipated biologically effective level. A detailed description of dose-limiting toxicities (DLT) is presented in the Supplementary Methods.
The phase II dose-expansion portion enrolled patients to receive the recommended phase II dose (RP2D) determined in phase I, with each cohort assessed separately using an adaptive two-stage design for a single proportion (see Supplementary Methods). For stage 1, each cohort was analyzed when a prespecified number of patients were enrolled and had the potential to have at least one posttreatment scan [i.e., after the first disease assessment, 2 months from cycle 1 day 1 (C1D1)]. If the prespecified minimal response rate was not achieved in the first stage for a given cohort, that cohort would be closed to enrollment. […] The final analysis of the primary endpoints for each cohort would take place when all ongoing patients had the opportunity to complete the 6-month disease assessment. Across both phases, patients received subasumstat for up to 1 year or until confirmed disease progression, unacceptable toxicity, if any withdrawal criterion from the study was met, or if discontinuation of subasumstat occurred.
The occurrence of DLTs was assessed during cycle 1 (DLTs are described in the Supplementary Methods). Treatment-emergent adverse events (TEAE) were graded according to NCI Common Terminology Criteria for Adverse Events version 5.0, except for cytokine release syndrome (CRS), which was graded according to the American Society for Transplantation and Cellular Therapy Consensus Grading for CRS ([20]).
It was anticipated that approximately 70 DLT-evaluable patients would be enrolled for dose escalation. The safety analysis set included all patients who received at least one dose, even if incomplete, of subasumstat. […] The overall response rate (ORR) was defined as the proportion of patients who achieved complete response and partial response (PR) during the study. The disease control rate (DCR) was defined as the proportion of patients who achieved […] as per RECIST v1.1 for solid tumors or Lugano classification for lymphomas. […] Progression-free survival was summarized descriptively using the Kaplan–Meier method.

Cc1sc(C(=O)c2cncnc2N[C@@H]2C[C@H](COS(N)(=O)=O)[C@@H](O)C2)cc1[C@@H]1NCCc2ccc(Cl)cc21 [subasumstat]
TEAE: Dyspnea (Phase I (n = 84)): 22 (26.2) n (%) | TEAE: Fatigue (Phase I (n = 84)): 42 (50.0) n (%) | TEAE: Headache (Phase I (n = 84)): 30 (35.7) n (%) | TEAE: Hypophosphatemia (Phase I (n = 84)): 11 (13.1) n (%) | TEAE: Insomnia (Phase I (n = 84)): 11 (13.1) n (%) | TEAE: Nausea (Phase I (n = 84)): 41 (48.8) n (%) | TEAE: Peripheral edema (Phase I (n = 84)): 15 (17.9) n (%) | TEAE: Pleural effusion (Phase I (n = 84)): 9 (10.7) n (%) | TEAE: Pyrexia (Phase I (n = 84)): 28 (33.3) n (%) | TEAE: Stomatitis (Phase I (n = 84)): 8 (9.5) n (%) | TEAE: Vomiting (Phase I (n = 84)): 27 (32.1) n (%) | TEAEs (Phase I (n = 84)): 81 (96.4) n (%) | TEAEs leading to discontinuation (Phase I (n = 84)): 8 (9.5) n (%) | TEAEs leading to discontinuation related to subasumstat (Phase I (n = 84)): 3 (3.6) n (%) | TEAEs related to subasumstat (Phase I (n = 84)): 65 (77.4) n (%) | AESI (adverse event of special interest) (Phase II (n = 25)): 3 (12.0) n (%) | AESI related to subasumstat (Phase II (n = 25)): 3 (12.0) n (%) | AESI: CRS (Phase II (n = 25)): 3 (12.0) n (%) | Grade ≥3 TEAE: Abdominal pain (Phase II (n = 25)): 2 (8.0) n (%) | Grade ≥3 TEAE: Acute kidney injury (Phase II (n = 25)): 2 (8.0) n (%) | Grade ≥3 TEAE: Anemia (Phase II (n = 25)): 5 (20.0) n (%) | Grade ≥3 TEAE: Aspartate aminotransferase increased (Phase II (n = 25)): 0 n (%) | Grade ≥3 TEAE: Blood bilirubin increased (Phase II (n = 25)): 0 n (%) | Grade ≥3 TEAE: Dyspnea (Phase II (n = 25)): 0 n (%) | Grade ≥3 TEAE: Fatigue (Phase II (n = 25)): 0 n (%) | Grade ≥3 TEAE: Hyperbilirubinemia (Phase II (n = 25)): 2 (8.0) n (%) | Grade ≥3 TEAE: Hypertension (Phase II (n = 25)): 1 (4.0) n (%) | Grade ≥3 TEAE: Hypokalemia (Phase II (n = 25)): 0 n (%) | Grade ≥3 TEAE: Hypomagnesemia (Phase II (n = 25)): 0 n (%) | Grade ≥3 TEAE: Hypophosphatemia (Phase II (n = 25)): 0 n (%) | Grade ≥3 TEAE: Lymphocyte count decreased (Phase II (n = 25)): 0 n (%) | Grade ≥3 TEAE: Lymphopenia (Phase II (n = 25)): 1 (4.0) n (%) | Grade ≥3 TEAE: Muscular weakness (Phase II (n = 25)): 2 (8.0) n (%) | Grade ≥3 TEAE: Nausea (Phase II (n = 25)): 0 n (%) | Grade ≥3 TEAE: Neutropenia (Phase II (n = 25)): 4 (16.0) n (%) | Grade ≥3 TEAE: Platelet count increased (Phase II (n = 25)): 2 (8.0) n (%) | Grade ≥3 TEAE: Pleural effusion (Phase II (n = 25)): 0 n (%) | Grade ≥3 TEAE: Pneumonia (Phase II (n = 25)): 1 (4.0) n (%) | Grade ≥3 TEAE: Pneumonitis (Phase II (n = 25)): 0 n (%) | Grade ≥3 TEAE: Pyrexia (Phase II (n = 25)): 0 n (%) | Grade ≥3 TEAE: Small intestinal obstruction (Phase II (n = 25)): 0 n (%) | Grade ≥3 TEAE: Thrombocytopenia (Phase II (n = 25)): 1 (4.0) n (%) | Grade ≥3 TEAE: Vomiting (Phase II (n = 25)): 0 n (%) | Grade ≥3 TEAEs (Phase II (n = 25)): 18 (72.0) n (%) | Grade ≥3 TEAEs related to subasumstat (Phase II (n = 25)): 11 (44.0) n (%) | Grade ≥3 subasumstat-related TEAE: Anemia (Phase II (n = 25)): 3 (12.0) n (%) | Grade ≥3 subasumstat-related TEAE: Aspartate aminotransferase increased (Phase II (n = 25)): 0 n (%) | Grade ≥3 subasumstat-related TEAE: Hypokalemia (Phase II (n = 25)): 0 n (%) | Grade ≥3 subasumstat-related TEAE: Lymphocyte count decreased (Phase II (n = 25)): 0 n (%) | Grade ≥3 subasumstat-related TEAE: Muscular weakness (Phase II (n = 25)): 2 (8.0) n (%) | Grade ≥3 subasumstat-related TEAE: Neutropenia (Phase II (n = 25)): 4 (16.0) n (%) | Grade ≥3 subasumstat-related TEAE: Platelet count increased (Phase II (n = 25)): 2 (8.0) n (%) | Grade ≥3 subasumstat-related TEAE: Pneumonitis (Phase II (n = 25)): 0 n (%) | Grade ≥3 subasumstat-related TEAE: Thrombocytopenia (Phase II (n = 25)): 1 (4.0) n (%) | On-study deaths (Phase II (n = 25)): 2 (8.0) n (%) | Patients with at least one grade ≥3 TEAE (Phase II (n = 25)): 18 (72.0) n (%) | Patients with at least one grade ≥3 subasumstat-related TEAE (Phase II (n = 25)): 11 (44.0) n (%) | Serious adverse events (Phase II (n = 25)): 11 (44.0) n (%) | Serious adverse events related to subasumstat (Phase II (n = 25)): 5 (20.0) n (%) | Subasumstat-related TEAE: Anemia (Phase II (n = 25)): 4 (16.0) n (%) | Subasumstat-related TEAE: CRS (Phase II (n = 25)): 3 (12.0) n (%) | Subasumstat-related TEAE: Chills (Phase II (n = 25)): 6 (24.0) n (%) | Subasumstat-related TEAE: Decreased appetite (Phase II (n = 25)): 3 (12.0) n (%) | Subasumstat-related TEAE: Diarrhea (Phase II (n = 25)): 6 (24.0) n (%) | Subasumstat-related TEAE: Dyspnea (Phase II (n = 25)): 2 (8.0) n (%) | Subasumstat-related TEAE: Fatigue (Phase II (n = 25)): 7 (28.0) n (%) | Subasumstat-related TEAE: Headache (Phase II (n = 25)): 5 (20.0) n (%) | Subasumstat-related TEAE: Hypokalemia (Phase II (n = 25)): 0 n (%) | Subasumstat-related TEAE: IRR (Phase II (n = 25)): 1 (4.0) n (%) | Subasumstat-related TEAE: Myalgia (Phase II (n = 25)): 2 (8.0) n (%)
